{
  "source": "paper PMC11436758",
  "about": "“Computer-aided drug design to generate a unique antibiotic family” (Nature Communications, 2024)",
  "format_in_all_cases": "cell-based",
  "key": {"[1]": {"system": "102 ATCC strains and clinical isolates of Staphylococcus, Streptomyces, and Enterococcus", "experiment": "MIC panel summary over all strains", "conditions": "of 102 strains", "protocol": "We also sought to determine if DNM0547 was bacteriostatic or bactericidal. Time kill experiments were carried out using increasing doses of DNM0547 against two different strains of MRSA.\n(§1) The medium employed for the assay was Mueller Hinton II Broth (MHB II; Becton-Dickinson, Sparks, MD, USA). Agar plates used for the organisms were trypticase soy agar plus 5% sheep blood (BD; Sparks, MD, USA). MIC assay plates were prepared using the CLSI broth microdilution procedure. Automated liquid handlers (Multidrop 384, Biomek 2000 and Biomek FX) were used to conduct serial dilutions and liquid transfers. A standardized inoculum of each organism was prepared per CLSI methods. Suspensions were prepared to equal a 0.5 McFarland standard, followed by a 1:20 dilution in test media. The inocula were dispensed into sterile reservoirs divided by length (Beckman Colter) and the Biomek 2000 was used to inoculate the plates. Daughter plates were placed on the Biomek 2000 work surface in reverse orientation so that inoculation took place from low to high drug concentration. The Biomek 2000 delivered 10 μL of the diluted suspension into each well. These inoculations yielded a final cell concentration in the daughter plates of ~5 × 10^5 colony-forming units/mL in each well. The wells of the daughter plates ultimately contained 185 μL of broth, 5 μL of drug solution, and 10 μL of bacterial inoculum. Plates were covered with a sterile lid on the top plate, placed in plastic bags, and incubated at 35 °C for ~18 h. The microplates were viewed from the bottom using a plate viewer and the MIC was read. The MIC was recorded as the lowest concentration of drug that inhibited visible growth of the organism."}, "S. aureus (MRSA)": {"system": "S. aureus (MRSA)", "experiment": "MIC, clinical and laboratory strains", "protocol": "as §1"}, "S. aureus (MSSA)": {"system": "S. aureus (MSSA)", "experiment": "MIC, clinical and laboratory strains", "protocol": "as §1"}, "S. aureus (VISA)": {"system": "S. aureus (VISA)", "experiment": "MIC, clinical and laboratory strains", "protocol": "as §1"}, "P. aeruginosa ATCC 27853": {"system": "P. aeruginosa ATCC 27853", "experiment": "MIC alone and MIC of colistin in combination with DNM compounds", "conditions": "compound alone, bracket after colistin value is a range (0.25-4)", "protocol": "as §1, with “organism. Uninoculated solubility control plates were also observed for evidence of drug precipitation.” for “organism.”\n(§2) Compound K. pneumoniae A. baumannii E. coli P. aeruginosa […]\n(§3) Supplementary Table 3. Minimum inhibitory concentration (MIC; µg/ml) of DNM\n(§4) compounds that show potential synergy in combination with colistin. […]"}, "E. coli ATCC 25922": {"system": "E. coli ATCC 25922", "experiment": "MIC alone and MIC of colistin in combination with DNM compounds", "conditions": "compound alone, bracket after colistin value is a range (0.25-2)", "protocol": "as §1, with “organism. Uninoculated solubility control plates were also observed for evidence of drug precipitation.” for “organism.”\nas §2, §3, §4"}, "K. pneumoniae MMX8390": {"system": "K. pneumoniae MMX8390", "experiment": "MIC alone and MIC of colistin in combination with DNM compounds", "conditions": "compound alone", "protocol": "as §1, with “organism. Uninoculated solubility control plates were also observed for evidence of drug precipitation.” for “organism.”\nas §2, §3, §4"}, "A. baumannii ATCC 19606": {"system": "A. baumannii ATCC 19606", "experiment": "MIC alone and MIC of colistin in combination with DNM compounds", "conditions": "compound alone", "protocol": "as §1, with “organism. Uninoculated solubility control plates were also observed for evidence of drug precipitation.” for “organism.”\nas §2, §3, §4"}},
  "data": [
    {"compound": "CN[C@H](CC(C)C)C(=O)N[C@H]1C(=O)N[C@@H](CC(N)=O)C(=O)N[C@H]2C(=O)N[C@H]3C(=O)N[C@H](C(=O)N[C@H](C(=O)O)c4cc(O)cc(O)c4-c4cc3ccc4O)[C@H](O)c3ccc(c(Cl)c3)Oc3cc2cc(c3O[C@@H]2O[C@H](CO)[C@@H](O)[C@H](O)[C@H]2O[C@H]2C[C@](C)(N)[C@H](O)[C@H](C)O2)Oc2ccc(cc2Cl)[C@H]1O", "note": "[vancomycin]", "values": [
      {"measurement": "number of strains tested with MIC not ≤ 2 μg/mL", "setting": "[1]", "value": 37},
      {"measurement": "MIC", "setting": "S. aureus (MRSA); S. aureus (MRSA) 2167", "value": 0.5, "unit": "µg/mL"},
      {"measurement": "MIC", "setting": "S. aureus (MRSA); S. aureus (MRSA) 2168", "value": 0.5, "unit": "µg/mL"},
      {"measurement": "MIC", "setting": "S. aureus (MRSA); S. aureus (MRSA) 2169", "value": 1, "unit": "µg/mL"},
      {"measurement": "MIC", "setting": "S. aureus (MRSA); S. aureus (MRSA) 2170", "value": 0.5, "unit": "µg/mL"},
      {"measurement": "MIC", "setting": "S. aureus (MRSA); S. aureus (MRSA) 2171", "value": 0.5, "unit": "µg/mL"},
      {"measurement": "MIC", "setting": "S. aureus (MRSA); S. aureus (MRSA) 2293", "value": 0.5, "unit": "µg/mL"},
      {"measurement": "MIC", "setting": "S. aureus (MRSA); S. aureus (MRSA) 2294", "value": 0.5, "unit": "µg/mL"},
      {"measurement": "MIC", "setting": "S. aureus (MRSA); S. aureus (MRSA) 2295", "value": 0.5, "unit": "µg/mL"},
      {"measurement": "MIC", "setting": "S. aureus (MRSA); S. aureus (MRSA) 2296", "value": 0.5, "unit": "µg/mL"},
      {"measurement": "MIC", "setting": "S. aureus (MRSA); S. aureus (MRSA) 2297", "value": 1, "unit": "µg/mL"},
      {"measurement": "MIC", "setting": "S. aureus (MRSA); S. aureus (MRSA) 3880", "value": 0.5, "unit": "µg/mL"},
      {"measurement": "MIC", "setting": "S. aureus (MRSA); S. aureus (MRSA) 5373", "value": 0.5, "unit": "µg/mL"},
      {"measurement": "MIC", "setting": "S. aureus (MRSA); S. aureus (MRSA) 5666", "value": 0.5, "unit": "µg/mL"},
      {"measurement": "MIC", "setting": "S. aureus (MRSA); S. aureus (MRSA) 5702", "value": 0.5, "unit": "µg/mL"},
      {"measurement": "MIC", "setting": "S. aureus (MRSA); S. aureus (MRSA) 5999", "value": 0.5, "unit": "µg/mL"},
      {"measurement": "MIC", "setting": "S. aureus (MRSA); S. aureus (MRSA) 6165", "value": 1, "unit": "µg/mL"},
      {"measurement": "MIC", "setting": "S. aureus (MRSA); S. aureus (MRSA) 6169", "value": 0.5, "unit": "µg/mL"},
      {"measurement": "MIC", "setting": "S. aureus (MRSA); S. aureus (MRSA) 6174", "value": 0.5, "unit": "µg/mL"},
      {"measurement": "MIC", "setting": "S. aureus (MRSA); S. aureus (MRSA) 6311", "value": 1, "unit": "µg/mL"},
      {"measurement": "MIC", "setting": "S. aureus (MRSA); S. aureus (MRSA) 6312", "value": 0.5, "unit": "µg/mL"},
      {"measurement": "MIC", "setting": "S. aureus (MRSA); S. aureus (MRSA) 6313", "value": 0.5, "unit": "µg/mL"},
      {"measurement": "MIC", "setting": "S. aureus (MRSA); S. aureus (MRSA) 6315", "value": 1, "unit": "µg/mL"},
      {"measurement": "MIC", "setting": "S. aureus (MRSA); S. aureus (MRSA) 6320", "value": 1, "unit": "µg/mL"},
      {"measurement": "MIC", "setting": "S. aureus (MRSA); S. aureus (MRSA) 6498", "value": 0.5, "unit": "µg/mL"},
      {"measurement": "MIC", "setting": "S. aureus (MRSA); S. aureus (MRSA) 6501", "value": 0.5, "unit": "µg/mL"},
      {"measurement": "MIC", "setting": "S. aureus (MRSA); S. aureus (MRSA) 6505", "value": 0.5, "unit": "µg/mL"},
      {"measurement": "MIC", "setting": "S. aureus (MRSA); S. aureus (MRSA) 6506", "value": 0.5, "unit": "µg/mL"},
      {"measurement": "MIC", "setting": "S. aureus (MRSA); S. aureus (MRSA) NRS382/2119", "value": 1, "unit": "µg/mL"},
      {"measurement": "MIC", "setting": "S. aureus (MRSA); S. aureus (MRSA) NRS383/2120", "value": 0.5, "unit": "µg/mL"},
      {"measurement": "MIC", "setting": "S. aureus (MRSA); S. aureus (MRSA) NRS384/2011", "value": 0.5, "unit": "µg/mL"},
      {"measurement": "MIC", "setting": "S. aureus (MSSA); S. aureus (MSSA) 2127", "value": 1, "unit": "µg/mL"},
      {"measurement": "MIC", "setting": "S. aureus (MSSA); S. aureus (MSSA) 6167", "value": 0.5, "unit": "µg/mL"},
      {"measurement": "MIC", "setting": "S. aureus (MSSA); S. aureus (MSSA) 6168", "value": 0.5, "unit": "µg/mL"},
      {"measurement": "MIC", "setting": "S. aureus (MSSA); S. aureus (MSSA) 6170", "value": 0.5, "unit": "µg/mL"},
      {"measurement": "MIC", "setting": "S. aureus (MSSA); S. aureus (MSSA) 6316", "value": 1, "unit": "µg/mL"},
      {"measurement": "MIC", "setting": "S. aureus (MSSA); S. aureus (MSSA) 6317", "value": 0.5, "unit": "µg/mL"},
      {"measurement": "MIC", "setting": "S. aureus (MSSA); S. aureus (MSSA) 6318", "value": 0.5, "unit": "µg/mL"},
      {"measurement": "MIC", "setting": "S. aureus (MSSA); S. aureus (MSSA) 6499", "value": 0.5, "unit": "µg/mL"},
      {"measurement": "MIC", "setting": "S. aureus (MSSA); S. aureus (MSSA) 6500", "value": 0.5, "unit": "µg/mL"},
      {"measurement": "MIC", "setting": "S. aureus (MSSA); S. aureus (MSSA) 6502", "value": 0.5, "unit": "µg/mL"},
      {"measurement": "MIC", "setting": "S. aureus (VISA); S. aureus (VISA) 1724", "value": 4, "unit": "µg/mL"},
      {"measurement": "MIC", "setting": "S. aureus (VISA); S. aureus (VISA) 2012", "value": 8, "unit": "µg/mL"},
      {"measurement": "MIC", "setting": "S. aureus (VISA); S. aureus (VISA) 2013", "value": 4, "unit": "µg/mL"},
      {"measurement": "MIC", "setting": "S. aureus (VISA); S. aureus (VISA) 2014", "value": 4, "unit": "µg/mL"},
      {"measurement": "MIC", "setting": "S. aureus (VISA); S. aureus (VISA) 2015", "value": 4, "unit": "µg/mL"},
      {"measurement": "MIC", "setting": "S. aureus (VISA); S. aureus (VISA) 2016", "value": 4, "unit": "µg/mL"},
      {"measurement": "MIC", "setting": "S. aureus (VISA); S. aureus (VISA) 2017", "value": 8, "unit": "µg/mL"},
      {"measurement": "MIC", "setting": "S. aureus (VISA); S. aureus (VISA) 2018", "value": 4, "unit": "µg/mL"},
      {"measurement": "MIC", "setting": "S. aureus (VISA); S. aureus (VISA) 2019", "value": 4, "unit": "µg/mL"},
      {"measurement": "MIC", "setting": "S. aureus (VISA); S. aureus (VISA) 2123", "value": 8, "unit": "µg/mL"},
      {"measurement": "MIC", "setting": "S. aureus (VISA); S. aureus (VISA) NRS1/1723", "value": 8, "unit": "µg/mL"}
    ]},
    {"compound": "colistin [reference compound]", "values": [
      {"measurement": "MIC", "setting": "P. aeruginosa ATCC 27853", "value": 0.25, "unit": "µg/mL"},
      {"measurement": "MIC", "setting": "E. coli ATCC 25922", "value": 0.25, "unit": "µg/mL"},
      {"measurement": "MIC", "setting": "K. pneumoniae MMX8390", "value": 16, "unit": "µg/mL"},
      {"measurement": "MIC", "setting": "A. baumannii ATCC 19606", "value": 0.25, "unit": "µg/mL"}
    ]}
  ]
}
